# Measured values as given in patent US20070254907A1, “COMPOSITIONS AND METHODS FOR CONTROLLING INFESTATION” (HATCHTECH PTY LTD, priority 2003, published 2007).
# Read-outs that look alike come from different tables or passages of the source.
# Tests used:
# [1] = test system: proteases in egg shell washings (ESW) of lice eggs; assay: Gelatin substrate SDS-PAGE of lice egg shell washings (ESW) incubated with protease inhibitors; type: biochemical, Pediculus humanus humanus
# Description: Within 12 hours of hatching 50 body lice eggs (Pediculus humanus humanus) were removed from the hair and placed in a 1 mL eppendorf tube. 20 μL of distilled water was added to the unhatched eggs and the preparation incubated for 30 minutes at 32° C. The 20 μL was recovered, freeze dried and stored at −70° C. This sample was referred to as sample 1. A number of other samples were also collected as described. Sample 2 was collected by removing the unhatched louse eggs from four hairs that were approximately 3 cm long, cutting the hair into 0.5 cm lengths, and placing them into a microfuge tube containing 20 μl of distilled water and incubating at 32° C. for 30 minutes. Sample 3 was collected as for sample 2, but the hair was placed in a tube containing 10 mL of 1% sodium hypochlorite for 1 minute followed by five 1 minute washes in 25 mL of distilled water to remove the sodium hypochlorite before being incubated in a microfuge tube containing 20 μl of distilled water and incubated as for Sample 2. Sample 4 was collected from unhatched eggs which were removed from the hair and washed with 1% sodium hypochlorite and incubated in 20 μl of distilled water in the same manner as the hair in Sample 3. Finally, Sample 5 was collected from eggs that were within 24 hrs of hatching which were washed with 1% sodium hypochlorite, then returned to the incubator at 32° C. until they hatched, the empty egg shells collected 0-2 hrs after egg-hatching, placed in a 1 mL microfuge tube containing 20 μl of distilled water and incubated as for Samples 1-4. For all samples 1-5 the 20 μl of fluid was recovered, freeze-dried and stored at −70° C. The washings recovered from these freshly hatched egg shells are referred to as egg-shell-washings (ESWs). In order to look for the presence of proteases present in these different samples, the freeze-dried samples were resuspended in 15 μL of non-reducing SDS sample buffer, centrifuged at 10,000 g for 2 minutes and the entire 15 μL loaded on to 10% gelatine substrate SDS-PAGE gels. Gels were run at 4° C. for 10 minutes at 10 mA followed by a further 25 minutes at 15 mA per gel. They were then incubated for 2×20 minutes in a 2.5% Triton-X 100 solution followed by a three hour incubation in 0.1M Tris/HCl containing 1 mM CaCl2 pH 8.0. Activity was detected as clear areas on the gel the result of protease activity degrading the gelatine within the gel.
# Protease activity in the ESWs from louse eggs was also examined using two-dimensional gel electrophoresis. It was necessary to collect large numbers of freshly hatched egg shells. Following egglaying onto pieces of cloth, adult female lice were removed and the cloth with the eggs washed with 1% sodium hypochlorite as for collection of ESWs. The eggs were then returned to the incubator and permitted to hatch. Typically 100 to 500 hatched egg shells were collected (0-2 hours post hatching), placed in a microfuge tube containing 200 μl of distilled water, incubated and sample treated as described above. For analysis, ESWs were resuspended in rehydration buffer (8 M Urea, 2% 3-[(3-cholamidopropyl) dimethylammonio]-1-propanesulfonate 2% Immobilised pH gradient buffer 3-10 (Amersham Phamacia Biotech, Uppsala, Sweden)) and used to rehydrate 7 cm Immobiline Dry strips pH 3-10 (Amersham Bioscience) overnight. Strips were transferred to the Multiphor II (Pharmacia, Sweden) apparatus, electrophoresed in the first dimension at 200 V for 1 min, increasing to 3,500 V over the next 90 min followed by 65 min at 3,500 V, equilibrated (6 M urea, 30% glycerol, 50 mM Tris pH 8.8 and 2% SDS) and then run on a 10% SDS-PAGE gel containing 0.1% gelatin for the second dimension. The gel was then run and developed as previously described.
# 10% SDS-PAGE gelatine substrate gels were loaded with freeze dried egg shell washings from 100 lice eggs that had been resuspended in 50 μL of non-reducing sample buffer with samples run at 10 μL per lane. […]
# head lice egg = assay: Head lice egg hatching, time course; type: in vivo, Pediculus humanus capitus; conditions: 10 mM; for inhibition at 10000 µM: Pediculus humanus, 10 minutes, read-out: Percent inhibition of egg hatching relative to the control
# Description: Tests were carried out to determine if metal chelating agent and metalloprotease inhibitor 1,10-phenanthroline could inhibit head lice egg (Pediculus humanus capitus) hatching as opposed to body lice. Head lice eggs were obtained by placing groups of both 1-2 adult male and 6-8 adult female head lice in separate wells in a 24 well petri dish containing cotton cloth. The petri dish was transferred to a humid incubator at 32° C., 70% RH for 12 hours to permit the female lice to lay their eggs. After 12 hours, all adult lice were removed from the petri dish wells and a series of time-course experiments conducted. A group of eggs (24 hr old) was treated for 10 minutes with 200 μL of a 10 mM solution of 1,10-phenanthroline. A control (ie no inhibitor treatment) group of eggs was also included. The eggs were removed from the inhibitor, blotted dry on tissue paper, placed at 32° C., 70% RH and left to hatch. A second group of eggs, (48 hours old) were treated as previously described and also left to hatch. This process was repeated at 24 hour intervals on head lice eggs up to 120 hours post laying. This method of assaying inhibitors more closely mirrors the field situation where lice eggs will be at various stages of development on the head and permits the inhibitory effects to be observed on these different stages of the parasite.
# [2] = test system: house dust mite Dermatophagoides spp; assay: House dust mite counts on treated filter paper; type: in vivo; conditions: over the 2 week period, 25° C., 75% RH
# Description: A filter paper (90 mm diameter) was taken and placed in a Petri dish of the same dimensions. The filter paper was then wetted throughout with the test compound, using a small air pump sprayer. The wetted filter paper was then allowed to dry in free flowing air. 200 mg dust mite medium, containing roughly 500 mites/g, was placed on the filter paper and the number of mites counted under a microscope. The arena was then left for 2 weeks on an incubator at 25° C. and 75% RH. After 2 weeks the number of mites in the arena was counted for a second time. This experiment was repeated 3 times with the test compound and a further 3 times using water as a control.
# body louse eggs = assay: Standard body louse egg assay with formulated compound; type: in vivo, body lice; conditions: 10 minute exposure; for % of eggs that hatched following treatment: formulated
# Description: 5,5′-dimethyl-2,2′-dipyridyl was formulated and evaluated in the standard body louse egg assay. Body louse eggs (15-30 per replicate) of varying ages were exposed for 10 minute to the test solutions or a placebo or left untreated, followed by a 1 minute water wash and blotted dry. The eggs were then incubated at 30° C. over the following 10 days post treatment and the percentage of eggs that successfully hatched was determined (Table 20).
smiles,measurement,setting,value
"c1cnc2c(c1)ccc1cccnc12 [1,10-phenanthroline, reference compound]","protease activity of ESW, two dimensional gel electrophoresis",[1]; gel incubated with 10 mM inhibitor,general reduction in protease activity in the 25-30 kDa region and a clear reduction in the proteases present around the 50 kDa region and above 75 kDa
same,protease activity of ESW on gelatin SDS-PAGE compared to untreated controls,"[1]; gel strips incubated with inhibitor: PMSF 5 mM, 1,10-phenanthroline 10 mM, EDTA 10 mM, pepstatin 5 μM, E-64 10 μM",reduction in protease activity
same,inhibition of egg hatching in head lice,head lice egg,significantly inhibit egg hatching in head lice
same,inhibition at 10000 µM,head lice egg; treated day 1 post laying,100%
same,inhibition at 10000 µM,head lice egg; treated day 2 post laying,87%
same,inhibition at 10000 µM,head lice egg; treated day 3 post laying,88%
same,inhibition at 10000 µM,head lice egg; treated day 4 post laying,100%
same,inhibition at 10000 µM,head lice egg; treated day 5 post laying,100%
"Cc1ccc(-c2ccc(C)cn2)nc1 [5,5′-dimethyl-2,2′-dipyridyl]",mite populations on the treated filter papers,[2],small decline
same,ovicidal activity of formulated compound on body louse eggs,body louse eggs; 1 minute water wash,strong dose dependency of ovicidal activity
same,% of eggs that hatched following treatment,"body louse eggs; 1 mM, age of eggs 24 hr",91%
same,% of eggs that hatched following treatment,"body louse eggs; 1 mM, age of eggs 48 hr",80%
same,% of eggs that hatched following treatment,"body louse eggs; 1 mM, age of eggs 96 hr",82%
same,% of eggs that hatched following treatment,"body louse eggs; 1 mM, age of eggs 120 hr",86%
same,% of eggs that hatched following treatment,"body louse eggs; 5 mM, age of eggs 24 hr",21%
same,% of eggs that hatched following treatment,"body louse eggs; 5 mM, age of eggs 48 hr",58%
same,% of eggs that hatched following treatment,"body louse eggs; 5 mM, age of eggs 96 hr",64%
same,% of eggs that hatched following treatment,"body louse eggs; 5 mM, age of eggs 120 hr",65%
same,% of eggs that hatched following treatment,"body louse eggs; 10 mM, age of eggs 24 hr",4%
same,% of eggs that hatched following treatment,"body louse eggs; 10 mM, age of eggs 48 hr",7%
same,% of eggs that hatched following treatment,"body louse eggs; 10 mM, age of eggs 96 hr",10%
same,% of eggs that hatched following treatment,"body louse eggs; 10 mM, age of eggs 120 hr",12%
same,% of eggs that hatched following treatment,"body louse eggs; 30 mM, age of eggs 24 hr",0%
same,% of eggs that hatched following treatment,"body louse eggs; 30 mM, age of eggs 48 hr",0%
same,% of eggs that hatched following treatment,"body louse eggs; 30 mM, age of eggs 96 hr",0%
same,% of eggs that hatched following treatment,"body louse eggs; 30 mM, age of eggs 120 hr",0%
